The subject of assay [1] is pH3(Ser 28) in RPE1 cells. In words: Substrate phosphorylation immunofluorescence assay, pH3(Ser 28), RPE1. Format: cell-based, human.
Experimental: Asynchronous cells were incubated with vehicle (DMSO) or different inhibitor doses for 8 h and then fixed and labeled with a mixture of three antibodies directed against pLATS2(Ser 83), pH3(Ser 28), and MPM2 [which detects mitotic phosphoepitopes; ([86])]. While both the anti-pLATS2(Ser 83) and MPM2 antibodies are mouse monoclonals, they are of different IgG subclasses [IgG2b for anti-pLATS2(Ser 83) and IgG1 for MPM2], and can thus be detected with subclass-specific secondary antibodies (Table S3 in Supplementary Material).
Cells were imaged in 4 channels to visualize pLATS2(Ser 83), pH3(Ser 28), MPM2, and DNA (labeled with Hoechst) and mitotic cells were segmented based on their bright MPM2 labeling (Figure 3E). Intensity and area thresholds were set to select the pLATS2(Ser 83) foci and the pH3(Ser 28)-labeled chromatin in their respective channels in DMSO-treated control cells and the same thresholds were applied for inhibitor-treated cells. The mean fluorescence intensity per pixel was measured to assess the activities of the kinases targeting these two substrate phosphorylation sites.
After 8 h cells were fixed with 4% PFA for 20 min at room temperature. The fixed cells were washed with PBS. For immunostaining, cells were permeabilized and blocked with PBS containing 10% normal donkey serum (Jackson ImmunoResearch) and 0.1% Triton-X100 for 1 h at room temperature. Primary antibodies against phospho-LATS2 (Ser 83), phospho-histone H3(Ser 28), and anti-phospho-MPM2 (see Table S3 in Supplementary Material) were incubated for 1 h at room temperature. […] Cells were then washed twice with PBS containing 0.1% Triton-X100. […] Fifty fields per well were imaged with quadruplicate wells for each condition. Image analysis was done using the CV7000 image analysis software (Yokogawa Electric Corporation). Between 100 and 1,000 mitotic cells per condition were segmented applying object identification parameters to select for bright MPM2 labeling. Using a nuclear identifier protocol, minimum intensity thresholds were set for pLATS2(Ser 83) and the pH3(Ser 28) signals, and the resulting identified objects were eroded, dilated, and filtered for size by user-defined thresholds. […] The same thresholds were applied for all of the inhibitor-treated samples, which were processed, imaged, and analyzed in parallel with control DMSO-treated cells. Data were fit using a four-parameter, variable slope fit in Prism (GraphPad).
For assay [2], the system named is pAuroraA(Thr 288) in HeLa cells. In words: Immunoblotting of Aurora A activation loop phosphorylation. Format: cell-based, human. The note with it: for IC50: Homo sapiens, read-out: IC50 pAuroraA(Thr 288); for Effect on pAuroraA(Thr 288): dose–response.
Assay [3] concerns the target 363 human kinases (including Aurora A/B/C) (Homo sapiens, UniProt P07947). In words: biochemical. The note with it: YES/YES1; for remaining activity at 0.5 µM / remaining activity at 0.1 µM: read-out: % Enzyme Activity (relative to DMSO controls); for remaining activity at 0.1 µM: 100 nM. Format: biochemical.
Text: (§1) However, the Aurora A/B selectivity ratios derived from our in vitro and in vivo data can be compared to prioritize inhibitors.
Assay [4] has as its target T1, 363 human kinases (including Aurora A/B/C) (Homo sapiens, UniProt Q9H093).
T1 sequence (Q9H093 1-628): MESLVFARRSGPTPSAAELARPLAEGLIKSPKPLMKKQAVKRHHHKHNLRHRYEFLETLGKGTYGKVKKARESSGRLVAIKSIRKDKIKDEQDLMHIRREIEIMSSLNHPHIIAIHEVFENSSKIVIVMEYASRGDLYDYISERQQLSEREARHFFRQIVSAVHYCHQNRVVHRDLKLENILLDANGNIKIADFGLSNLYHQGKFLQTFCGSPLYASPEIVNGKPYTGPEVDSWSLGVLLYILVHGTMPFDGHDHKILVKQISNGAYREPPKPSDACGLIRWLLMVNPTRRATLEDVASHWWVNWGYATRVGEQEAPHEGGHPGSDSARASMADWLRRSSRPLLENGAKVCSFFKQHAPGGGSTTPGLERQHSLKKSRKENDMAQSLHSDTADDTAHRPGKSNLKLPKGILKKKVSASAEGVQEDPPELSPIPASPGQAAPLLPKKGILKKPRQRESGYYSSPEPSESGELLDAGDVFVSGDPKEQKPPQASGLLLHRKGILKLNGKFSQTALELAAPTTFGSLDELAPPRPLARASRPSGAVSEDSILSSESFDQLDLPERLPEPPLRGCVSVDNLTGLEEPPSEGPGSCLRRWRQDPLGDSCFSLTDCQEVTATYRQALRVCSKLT
As to the kind of experiment: biochemical. It is filed as biochemical. The note with it: SNARK/NUAK2; for remaining activity at 0.5 µM / remaining activity at 0.1 µM: read-out: % Enzyme Activity (relative to DMSO controls); for remaining activity at 0.1 µM: 100 nM.
Text: as §1

For assay [5], the target named is 363 human kinases (including Aurora A/B/C) (Homo sapiens, UniProt Q16620). As to the kind of experiment: biochemical. Format: biochemical. The note with it: TRKB; for remaining activity at 0.1 µM: 100 nM.
Text: as §1
Assay [6] addresses 363 human kinases (including Aurora A/B/C) (Homo sapiens, UniProt Q5TCX8). As to the kind of experiment: biochemical. It is filed as biochemical. The settings on record: MLK4; for remaining activity at 0.5 µM / remaining activity at 0.1 µM: read-out: % Enzyme Activity (relative to DMSO controls); for remaining activity at 0.1 µM: 100 nM.
Text: as §1
Assay [7] concerns the target T2, 363 human kinases (including Aurora A/B/C) (Homo sapiens, UniProt O00444).
T2 sequence (O00444 1-970): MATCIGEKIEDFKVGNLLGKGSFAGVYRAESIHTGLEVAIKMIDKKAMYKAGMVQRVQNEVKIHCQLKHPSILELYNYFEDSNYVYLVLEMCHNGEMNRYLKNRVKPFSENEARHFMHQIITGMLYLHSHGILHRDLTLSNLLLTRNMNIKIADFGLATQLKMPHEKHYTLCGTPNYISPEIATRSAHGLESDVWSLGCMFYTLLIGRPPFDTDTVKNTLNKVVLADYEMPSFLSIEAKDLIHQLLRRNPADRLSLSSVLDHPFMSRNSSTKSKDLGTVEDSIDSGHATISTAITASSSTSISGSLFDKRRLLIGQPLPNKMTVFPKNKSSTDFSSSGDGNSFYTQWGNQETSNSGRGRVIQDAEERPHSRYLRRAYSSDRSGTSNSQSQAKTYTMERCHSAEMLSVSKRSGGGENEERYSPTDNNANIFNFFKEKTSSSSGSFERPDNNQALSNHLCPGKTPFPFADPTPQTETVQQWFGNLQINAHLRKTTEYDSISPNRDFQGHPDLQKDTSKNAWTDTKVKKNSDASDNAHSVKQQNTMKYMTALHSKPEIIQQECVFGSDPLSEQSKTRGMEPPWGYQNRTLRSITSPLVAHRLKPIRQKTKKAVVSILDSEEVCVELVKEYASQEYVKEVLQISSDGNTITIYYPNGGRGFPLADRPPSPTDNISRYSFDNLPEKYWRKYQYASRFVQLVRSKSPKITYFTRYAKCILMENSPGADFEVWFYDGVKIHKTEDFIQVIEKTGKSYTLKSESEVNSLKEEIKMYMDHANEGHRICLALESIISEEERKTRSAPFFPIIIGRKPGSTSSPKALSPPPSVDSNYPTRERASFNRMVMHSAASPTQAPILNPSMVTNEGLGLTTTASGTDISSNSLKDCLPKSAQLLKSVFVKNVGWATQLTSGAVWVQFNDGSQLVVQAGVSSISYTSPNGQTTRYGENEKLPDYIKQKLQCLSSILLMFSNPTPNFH
As to the kind of experiment: biochemical. It is filed as biochemical. The note with it: PLK4/SAK; for remaining activity at 0.5 µM / remaining activity at 0.1 µM: read-out: % Enzyme Activity (relative to DMSO controls); for remaining activity at 0.1 µM: 100 nM.
Text: as §1

Setting [8] is: read-out: % Enzyme Activity (relative to DMSO controls).

Read-outs that look alike come from different tables or passages of the source. Some results are limits rather than exact numbers.

Sequence of 363 human kinases (including Aurora A/B/C) (Homo sapiens, UniProt Q16620) (Q16620 32-822): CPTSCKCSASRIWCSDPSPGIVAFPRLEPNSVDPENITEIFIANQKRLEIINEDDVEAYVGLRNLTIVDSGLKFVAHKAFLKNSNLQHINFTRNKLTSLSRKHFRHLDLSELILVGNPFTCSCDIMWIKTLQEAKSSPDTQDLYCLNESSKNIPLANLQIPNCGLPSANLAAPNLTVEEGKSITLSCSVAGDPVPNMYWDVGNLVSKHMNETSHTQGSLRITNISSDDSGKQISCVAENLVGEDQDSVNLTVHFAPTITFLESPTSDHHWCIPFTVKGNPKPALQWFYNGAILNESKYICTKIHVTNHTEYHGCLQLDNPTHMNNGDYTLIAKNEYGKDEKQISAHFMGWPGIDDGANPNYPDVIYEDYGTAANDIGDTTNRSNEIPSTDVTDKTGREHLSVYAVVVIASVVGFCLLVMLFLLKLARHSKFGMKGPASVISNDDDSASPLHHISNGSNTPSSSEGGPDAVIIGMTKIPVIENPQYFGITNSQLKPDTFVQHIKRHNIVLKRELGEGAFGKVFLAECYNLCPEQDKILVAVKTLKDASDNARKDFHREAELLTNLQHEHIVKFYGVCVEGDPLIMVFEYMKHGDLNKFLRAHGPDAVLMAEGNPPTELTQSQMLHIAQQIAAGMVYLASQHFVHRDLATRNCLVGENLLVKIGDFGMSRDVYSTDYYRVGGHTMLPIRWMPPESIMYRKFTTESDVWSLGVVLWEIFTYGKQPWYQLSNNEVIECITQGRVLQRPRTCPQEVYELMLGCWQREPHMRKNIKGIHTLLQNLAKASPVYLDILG
Sequence of 363 human kinases (including Aurora A/B/C) (Homo sapiens, UniProt P07947) (P07947 whole entry): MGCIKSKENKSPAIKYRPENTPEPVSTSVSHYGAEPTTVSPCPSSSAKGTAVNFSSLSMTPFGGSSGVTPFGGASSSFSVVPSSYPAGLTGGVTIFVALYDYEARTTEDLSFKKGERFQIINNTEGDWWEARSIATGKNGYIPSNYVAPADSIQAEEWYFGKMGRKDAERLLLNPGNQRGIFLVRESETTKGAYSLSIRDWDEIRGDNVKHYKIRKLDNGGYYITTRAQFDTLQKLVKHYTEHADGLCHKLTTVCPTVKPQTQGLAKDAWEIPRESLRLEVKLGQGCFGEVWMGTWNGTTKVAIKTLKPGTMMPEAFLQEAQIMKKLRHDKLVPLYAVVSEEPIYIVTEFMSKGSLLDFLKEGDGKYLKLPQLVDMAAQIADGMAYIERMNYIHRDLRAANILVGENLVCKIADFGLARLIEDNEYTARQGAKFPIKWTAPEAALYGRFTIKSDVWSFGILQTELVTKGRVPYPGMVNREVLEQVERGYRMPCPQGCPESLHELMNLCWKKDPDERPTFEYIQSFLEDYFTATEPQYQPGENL
Sequence of 363 human kinases (including Aurora A/B/C) (Homo sapiens, UniProt Q5TCX8) (Q5TCX8 whole entry): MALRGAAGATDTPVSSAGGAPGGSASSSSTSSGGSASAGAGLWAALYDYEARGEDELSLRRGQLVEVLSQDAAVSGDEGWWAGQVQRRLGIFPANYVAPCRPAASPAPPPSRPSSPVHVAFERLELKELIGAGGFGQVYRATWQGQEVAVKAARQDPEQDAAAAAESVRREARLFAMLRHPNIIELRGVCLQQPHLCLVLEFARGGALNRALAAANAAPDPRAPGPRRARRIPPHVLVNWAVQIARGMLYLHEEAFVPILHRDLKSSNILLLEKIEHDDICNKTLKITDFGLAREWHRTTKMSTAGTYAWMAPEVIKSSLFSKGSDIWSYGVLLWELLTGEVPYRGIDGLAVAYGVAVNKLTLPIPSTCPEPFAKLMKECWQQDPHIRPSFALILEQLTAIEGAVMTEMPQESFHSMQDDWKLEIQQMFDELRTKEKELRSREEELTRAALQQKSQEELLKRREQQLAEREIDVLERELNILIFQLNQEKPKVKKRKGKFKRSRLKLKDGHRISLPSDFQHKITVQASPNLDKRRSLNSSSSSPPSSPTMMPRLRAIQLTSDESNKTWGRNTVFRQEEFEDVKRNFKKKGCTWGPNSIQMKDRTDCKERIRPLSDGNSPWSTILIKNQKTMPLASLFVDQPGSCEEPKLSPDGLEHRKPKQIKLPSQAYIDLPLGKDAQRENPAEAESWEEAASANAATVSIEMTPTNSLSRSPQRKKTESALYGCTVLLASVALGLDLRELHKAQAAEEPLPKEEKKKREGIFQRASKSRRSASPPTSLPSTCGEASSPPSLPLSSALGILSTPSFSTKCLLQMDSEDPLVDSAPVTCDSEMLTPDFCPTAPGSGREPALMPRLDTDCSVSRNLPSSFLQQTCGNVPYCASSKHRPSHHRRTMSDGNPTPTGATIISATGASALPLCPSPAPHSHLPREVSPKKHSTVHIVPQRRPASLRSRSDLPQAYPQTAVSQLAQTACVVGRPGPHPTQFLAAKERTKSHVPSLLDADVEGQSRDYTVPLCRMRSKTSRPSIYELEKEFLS

With `O=C(c1cccc(Cl)c1F)N1CCN(Cc2cccc(Nc3nccs3)n2)CC1` [MK-8745], in assay [1] (RPE1, 8 h inhibitor treatment), the “pHistone H3 (Ser28) IC50” value is reported as “NE@15 µM”. In assay [2] (immunoblot, taxol-arrested mitotic lysates), the IC50 was less than 100 nM. In addition, in assay [2] (immunoblot), the “Effect on pAuroraA(Thr 288)” value was “completely eliminate Thr 288 phosphorylation”. In addition, the “% Enzyme Activity (relative to DMSO controls)” value in assay [3] (500 nM) is on record as 33.63%; in assay [4] (500 nM), 85.75%; in assay [5] (500 nM), 8.70%; in assay [6] (500 nM) it was 91.32%; in assay [7] (500 nM), 70.47%. Further, the remaining activity at 0.5 µM in assay [3] (500 nM) amounted to 34.6%; in assay [4] (500 nM), 88.1%; in assay [5] (500 nM, read-out: % Enzyme Activity (relative to DMSO controls)), 9.04%; in assay [6] (500 nM), 91.5%; in assay [7] (500 nM), 71.4%.

For `CCn1cc(-c2ccnc3[nH]c(-c4cccc(CN(C)C)c4)cc23)c(-c2ccc(NC(=O)N(C)C)cc2)n1` [GSK1070916], in assay [1] (Homo sapiens, RPE-1, 8 h, read-out: pHistone H3 (Ser28) IC50), the IC50 amounted to 15 nM. The “Effect on Aurora A activity (pAuroraA Thr 288)” value in assay [2] (immunoblot, 300 nM (Figure S6)) is listed as “inhibited Aurora A activity”. For the same compound, in assay [2] (immunoblot), the “Effect on pAuroraA(Thr 288)” value was “did not affect”. Also, the remaining activity at 0.1 µM is 69.3% in assay [3]; 88.7% in assay [4]; 108% in assay [5] (setting [8]); 89% in assay [6]; 115% in assay [7].

As for `O=C(O)[C@]1(Cc2cccc(Nc3nccs3)n2)CC[C@@H](Oc2cccc(Cl)c2F)CC1` [MK-5108], the inhibition at 15 µM in assay [1] (Homo sapiens, RPE-1, read-out: pHistone H3 (Ser28) inhibition at highest concentration tested) was determined as 80%. For the same compound, the concentration for half-maximal inhibition (IC50) in assay [2] is less than 100 nM. In assay [2] (immunoblot), the “Effect on pAuroraA(Thr 288)” value is recorded as “completely eliminate Thr 288 phosphorylation”. Also, the remaining activity at 0.1 µM in assay [3] is 31.3%; in assay [4], 104%; in assay [5] (setting [8]) it was 1.79%; in assay [6] it was 113%; in assay [7], 21.9%. Moreover, the remaining activity at 0.5 µM in assay [3] (500 nM) came out at 9.25%; in assay [4] (500 nM), 70.8%; in assay [6] (500 nM), 34.7%; in assay [7] (500 nM) it was 9.25%.

Broadly, the IC50 is the concentration at which inhibition is half-maximal.

The values are drawn from paper PMC4685510, “A Cell Biologist’s Field Guide to Aurora Kinase Inhibitors” (Frontiers in Oncology, 2015).
